Patent publication US9594084B2, “Phosphorylation of histones and uses thereof” (H. LEE MOFFITT CANCER CENTER AND RESEARCH INSTITUTE, priority 2012, dated 2017)

How the values were obtained:
[1] = tested on: core histone genes located in Hist1 cluster; assay: qRT-PCR of histone genes (8-histone gene signature) in synchronized cells; format: cell-based; details: MK1775 0.6 uM, 14 hr, 8.30 hours post-release
Description: FIG. 33a-33h show a 8-histone gene signature. a-h, Synchronized cells treated with WEE1 inhibitor, MK1775 (0.6 uM, 14 hr) were harvested at indicated time points post-release. Total RNA was prepared followed by quantitative RT-PCR for 8 histone genes.
Human cells have 55 distinct histone genes each encoding a fraction of core histones. This study determined histone levels using 20 of these genes. In untreated cells, rapid decrease in transcripts of all of these histone genes was observed when RNA levels of 6.30 hours post-release samples (late S phase) were compared with 8.30 hours post-release (G2/M phase) samples (FIGS. 33a-33h).
Based on extensive transcriptional profiling of 20 histone genes, this study identified 8 genes (H2Bm, H2bn, H2Bl, H3 h, H4j, H2Ai, H2Ak and H2Bk) as being representative of global histone transcriptional output, termed as the 8-histone gene signature.

[2] = tested on: pY37-H2B marks within IDH2; assay: ChIP-qPCR of pY37-H2B marks within IDH2 in GBM derived cell lines; format: cell-based, human; details: U87
Source text: FIG. 44a-44f show H2B Tyr37-phosphorylation marks are deposited within IDH2.
To validate the role of WEE1 in IDH2 marking, chromatin from GBM derived cell line U87 was immunoprecipitated using the pY37-H2B antibody followed by qPCR. […] Similar data was obtained with another human GBM derived cell lines T98G (FIG. 44E).

WEE1 = WEE1 (Homo sapiens, UniProt P30291); assay: pTyr37-H2B immunoprecipitation/immunoblot in synchronized H1975 cells; format: cell-based; parameters: endogenous in cells; host or cells: H1975; details: 6.30 hours post-release, 0.3 μM
Description: FIG. 13A is an immunoblot showing lysates from synchronized MEFs immunoprecipitated with pTyr37-H2B antibodies followed by immunoblotting with pTyr37-H2B antibody (top panel) or H2B antibody (bottom panel). FIG. 13B is an immunoblot showing cell lysates 6.30 hours post-release from H1975 cells synchronized by double thymidine alone (first column) or with 0.31 μM (second column), 0.62 μM (third column) and 1.25 μM (fourth column) MK1775 WEE1 inhibitor that were immunoprecipitated with pTyr37-H2B antibodies followed by immunoblotting with pTyr37-H2B, H2B, pTyr15-Cdc2, or Cdc2 antibodies. FIG. 13C is an immunoblot showing lysates collected at 0 and 6.30 hours post-release from synchronized MEFs transfected with control (first two columns) or WEE1 (last two columns) siRNAs that were immunoprecipitated with pTyr37-H2B antibodies followed by immunoblotting with pTyr37-H2B (top panel), H2B (second panel), WEE1 (third panel), or PTyr15-Cdc2 (bottom panel) antibodies. FIG. 13D is an immunoblot showing equimolar amounts of purified WEE1 (last three columns) and H2B (first three columns) proteins incubated in the presence (third column) or absence of WEE1 inhibitor (MK1775, 0.625 μM) for 1 hour at 30° C. and immunoblotted with pTyr37-H2B (top panel), H2B (middle panel), and WEE1 (bottom panel) antibodies. […]

Chain of WEE1 (P30291 whole entry): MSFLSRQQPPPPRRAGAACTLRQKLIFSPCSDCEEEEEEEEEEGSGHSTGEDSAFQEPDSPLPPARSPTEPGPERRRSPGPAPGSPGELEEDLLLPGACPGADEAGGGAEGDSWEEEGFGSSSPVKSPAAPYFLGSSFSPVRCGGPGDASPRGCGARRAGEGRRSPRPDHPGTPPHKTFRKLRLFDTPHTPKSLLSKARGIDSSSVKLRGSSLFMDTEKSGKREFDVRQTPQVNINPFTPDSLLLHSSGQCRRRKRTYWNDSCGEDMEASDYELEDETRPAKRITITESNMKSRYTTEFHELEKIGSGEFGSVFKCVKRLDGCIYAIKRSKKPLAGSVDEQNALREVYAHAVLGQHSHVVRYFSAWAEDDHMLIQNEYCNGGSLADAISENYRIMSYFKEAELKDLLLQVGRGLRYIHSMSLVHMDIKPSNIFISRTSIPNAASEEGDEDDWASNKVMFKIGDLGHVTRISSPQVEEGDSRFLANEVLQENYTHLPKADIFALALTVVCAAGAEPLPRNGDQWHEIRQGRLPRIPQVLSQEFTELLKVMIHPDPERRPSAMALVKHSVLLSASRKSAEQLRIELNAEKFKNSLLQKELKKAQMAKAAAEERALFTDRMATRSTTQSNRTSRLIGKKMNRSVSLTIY

## C=CCn1c(=O)c2cnc(Nc3ccc(N4CCN(C)CC4)cc3)nc2n1-c1cccc(C(C)(C)O)n1 [MK-1775]
[1]
  histone mRNA levels: did not decrease
[2]
  pY37-H2B marks within IDH2: completely erased
WEE1
  pTyr37-phosphorylation of H2B: complete loss
